# Source: patent publication US11351178B2, “Selective HDAC6 inhibitors” (ITALFARMACO S.P.A., priority 2017, dated 2022)
# Assays:
# [1] = target: T1, HDAC4 (Homo sapiens, UniProt P56524); assay: Enzymatic test HDAC4; type: biochemical; settings: Table 3
# T1 construct: purchased BPS 50004
# Protocol: (§1) After a period of incubation at 30° C. (incubation times vary for different isoforms and are shown in table 1) 25 μL of solution containing the substrate were added. As substrate, FLUOR DE LYS® deacetylase substrate (Enzo Life Sciences, cat #BML-K1104, FdL), FLUOR DE LYS®-Green substrate (Enzo Life Sciences, cat #BML-K1572 FdL_G) and trifluoroacetyl-L-lysine (Tfal)-2× concentrated solution in 25 mM Tris-HCl, pH 8, 130 mM NaCl 0.05% Tween-20 10% glycerol) were used. Following a reaction period at 30° C.
# [2] = target: T2, HDAC8 (Homo sapiens, UniProt Q9BY41); assay: Enzymatic test HDAC8; type: biochemical; settings: Table 3
# T2 construct: purchased BPS 50008
# T2 sequence (Q9BY41 1-377): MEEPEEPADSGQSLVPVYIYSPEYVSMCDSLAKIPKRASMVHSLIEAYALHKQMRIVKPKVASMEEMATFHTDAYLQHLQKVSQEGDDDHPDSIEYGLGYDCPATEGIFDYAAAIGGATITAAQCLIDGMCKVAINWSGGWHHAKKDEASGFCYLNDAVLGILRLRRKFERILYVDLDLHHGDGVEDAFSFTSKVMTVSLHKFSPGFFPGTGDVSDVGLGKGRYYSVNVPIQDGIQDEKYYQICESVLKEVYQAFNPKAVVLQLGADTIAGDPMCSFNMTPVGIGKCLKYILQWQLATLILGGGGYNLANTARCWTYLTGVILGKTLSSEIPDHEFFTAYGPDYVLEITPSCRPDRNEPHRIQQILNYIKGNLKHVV
# [3] = target: T3, recombinant human HDAC3 (Homo sapiens, UniProt O15379); assay: Enzymatic screening on recombinant human HDAC3; type: biochemical; settings: Table 3
# T3 construct: purchased BPS 50003
# Protocol: Enzymatic activity on recombinant human HDAC6 and HDAC3 was evaluated (Table 2) for each synthesized compound.
# as §1
# [4] = tested on: B 697 promyelocytic cell line; assay: Cytotoxicity on 697 cell line (CellTiter 96); type: cell-based; settings: 72 hours incubation, read-out: 697 TOXICITY
# Procedure, shortened: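 Cells seeded (2×10^4/well for 697, 5×10^5/well for PBMCs); compounds added after 24 h at 1–10000 nM (697) or 1.5–10000 nM (PBMCs) and incubated 72 h. Viability read by CellTiter 96 Aqueous One tetrazolium assay of mitochondrial function.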
# [5] = tested on: regulatory T cell (Treg, CD4+CD25+) suppression activity; assay: T CD4 lymphocyte proliferation mediated by mouse regulatory T cells suppression assay; type: cell-based
# Protocol: To evaluate the ability of the molecules under this patent to increase regulatory T cell (Treg, CD4^+CD25^+) suppression activity a T-cell (responder T cells, Teff) proliferation suppression assay was used. Treg cells at different concentrations were cultured with Teff cells (CD4^+CD25^−) in the presence of proliferative stimuli. T cells need of two stimuli to proliferate: the first given by the recognition of antigen associated with MHC by T cell receptor (TCR) and the second one derived from co-stimulatory molecules such as CD28. In the absence of a specific antigen, TCR activation can take place with an antibody recognizing one of the composing subunits, CD3ε. In this assay, anti-CD3ε monoclonal antibody and CD4 T cell depleted splenocytes were used as activator stimuli. Therefore, the ability to reduce Teff cells proliferation by Tregs in the presence or absence of HDAC6 inhibitors was assessed.
# Treg and Teff cells were separated using the Treg isolation kit based on magnetic beads separation technique (Miltenyi Biotec) through an initial negative selection and a final positive selection process.
# Single cell suspension was obtained from spleen of C57BL/6 mice using a 70 μm strainer.
# Cell suspension was treated with ACK buffer to lyse red blood cells and then centrifuged for 5 minutes at 300×g. After centrifugation, the cells were resuspended in PBS (Phosphate Buffered Saline, Gibco) and counted. Subsequently, splenocytes were resuspended in a buffer consisting of PBS, 0.5% BSA and 2 mM EDTA.
# To proceed with the first step of Treg separation, CD4 negative cells were indirectly magnetically labeled with a cocktail of biotin-conjugated antibodies against CD8a, CD11b, CD45R, CD49b, Ter-119 and Anti-Biotin MicroBeads CD4+ cells were thus obtained by negative selection as flow-through of a magnetic MACS column.
# Cells bound to microbeads were eluted and conserved for their use as antigen presenting cells (APC) in the proliferation assay.
# In the second step of Treg purification, pre-enriched CD4+ cells were labelled with an R-phycoerythrin (PE)-conjugated anti-CD25 antibody that preferentially binds to Treg cells and magnetic beads coupled with an anti PE antibody. The cell suspension was then loaded on a column. The Teff cells pass through the column without binding (negative selection), while beads-bound Treg cells adhere through the magnetic beads (positive selection). Treg cells were then eluted from the column by buffer flow using a plunger. Treg and Teff cell purification is summarized in FIG. 6. • CD4− cells from first positive selection as APC • Treg CD4+ CD25+ as suppressor cells • Teff CD4+ CD25− as responder/proliferating cells
# CD4^− cells were treated with mitomycin C (50 μg/ml, Sigma) for 30 min at 37° C. to prevent their proliferation They were then resuspended at a concentration of 4.0×10^5/50 μl in complete medium (RPMI, FBS10%, penicillin/streptomycin 1×, 50 μM beta mercaptoethanol). Teffs were labeled with carboxy fluorescein succinimidyl ester (CFSE) at a concentration of 2 μM in PBS at 37° C., and after 10 minutes incubation, the reaction was blocked with a 10% FBS PBS solution. CFSE labelling allows covalent modification of Teff cell to analyse their proliferation by fluorescence dilution. The labelled Teffs were then centrifuged and resuspended at the final concentration of 5.0×10^4/50 μl in complete medium. Finally, the Tregs obtained by purification were diluted to the final concentration of 5.0×10^4/50 μl in complete medium.
# Then a co-culture of Teff (5.0×10^4), T CD4^− (4.0×10^5) was prepared and Treg cells in different ratios (1:1, 1:2, 1:4, 1:8 ratio Teff to Treg cells) were added thereto. The test compounds at different concentrations or DMSO vehicle were added to the cell suspension. Finally, an anti-CD3ε monoclonal antibody (Miltenyi Biotec) was added at a concentration of 1 μg/ml. Cells were plated in flat bottom 96-well plates and each condition was set up in a technical duplicate. […]
# T3 sequence (O15379 whole entry): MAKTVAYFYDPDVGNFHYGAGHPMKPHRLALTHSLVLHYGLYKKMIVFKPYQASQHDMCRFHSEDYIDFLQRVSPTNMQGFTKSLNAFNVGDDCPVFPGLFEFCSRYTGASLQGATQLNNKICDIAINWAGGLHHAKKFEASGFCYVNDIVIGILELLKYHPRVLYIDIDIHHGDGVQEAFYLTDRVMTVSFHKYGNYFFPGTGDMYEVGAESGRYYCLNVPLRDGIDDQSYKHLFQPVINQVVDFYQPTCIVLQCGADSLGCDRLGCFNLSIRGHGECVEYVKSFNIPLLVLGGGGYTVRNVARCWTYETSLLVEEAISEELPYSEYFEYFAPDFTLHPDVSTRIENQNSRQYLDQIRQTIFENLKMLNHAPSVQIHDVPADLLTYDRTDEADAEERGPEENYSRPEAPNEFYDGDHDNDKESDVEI
# T3 sequence (Q9Y618 395-489 partner limits assumed): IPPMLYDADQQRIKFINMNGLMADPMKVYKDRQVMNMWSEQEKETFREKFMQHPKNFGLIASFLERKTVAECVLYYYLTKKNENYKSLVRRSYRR
# T1 sequence (P56524 627-1084 limits assumed): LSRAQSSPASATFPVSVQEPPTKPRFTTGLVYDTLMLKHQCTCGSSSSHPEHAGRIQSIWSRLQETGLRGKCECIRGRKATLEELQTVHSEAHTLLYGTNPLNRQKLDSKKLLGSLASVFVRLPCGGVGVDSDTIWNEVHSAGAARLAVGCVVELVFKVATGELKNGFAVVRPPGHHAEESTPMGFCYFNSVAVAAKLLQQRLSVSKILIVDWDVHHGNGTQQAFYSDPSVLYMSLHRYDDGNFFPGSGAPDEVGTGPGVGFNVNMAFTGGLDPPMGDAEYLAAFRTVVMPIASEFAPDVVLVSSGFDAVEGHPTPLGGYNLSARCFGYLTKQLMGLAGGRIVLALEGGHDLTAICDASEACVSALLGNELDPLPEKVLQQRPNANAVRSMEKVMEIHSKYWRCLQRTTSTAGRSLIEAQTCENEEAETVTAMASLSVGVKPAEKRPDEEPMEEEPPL
smiles,measurement,setting,value
"COc1ccc(C(=O)N[C@@H](Cc2cscn2)c2nc(Cc3ccc(C(=O)NO)cc3)no2)cc1OC [comp. 1, (S)—N-(1-(3-(4-(hydroxycarbamoyl)benzyl)-1,2,4-oxadiazol-5-yl)-2-(thiazol-4-yl)ethyl)-3,4-dimethoxybenzamide]",IC50,[1],10.1 µM
same,IC50,[2],0.71 µM
same,IC50,[3],2.87 µM
same,IC50,[4],10.4 µM
"O=C(NO)c1cc(F)c(Cn2nnc(-c3ccccn3)n2)c(F)c1 [comp. 6, 3,5-difluoro-N-hydroxy-4-((5-(pyridin-2-yl)-2H-tetrazol-2-yl)methyl)benzamide]",IC50,[1],1.04 µM
same,IC50,[2],1.02 µM
same,IC50,[3],7.26 µM
same,IC50,[4],> 10 µM
same,"RS (relative T-reg suppression, AUC drug/AUC control)",[5]; concentration 1 μM,1.7
"Cn1c(Sc2ccc(C(=O)NO)cc2)nnc1-c1cccs1 [comp. 10, N-hydroxy-4-((4-methyl-5-(thiophen-2-yl)-4H-1,2,4-triazol-3-yl)thio)benzamide]",IC50,[1],2.5 µM
same,IC50,[2],0.506 µM
same,IC50,[3],0.487 µM
same,IC50,[4],4.33 µM
"O=C(NO)c1cc(F)c(Cn2nnnc2-c2ccccn2)c(F)c1 [comp. 13, 3,5-difluoro-N-hydroxy-4-((5-(pyridin-2-yl)-1H-tetrazol-1-yl)methyl)benzamide]",IC50,[1],0.606 µM
same,IC50,[2],0.49 µM
same,IC50,[3],2.49 µM
same,"RS (relative T-reg suppression, AUC drug/AUC control)",[5]; concentration 1 μM,1.9
"O=C(NO)c1cc(F)c(Cn2nnnc2-c2cccs2)c(F)c1 [comp. 15, 3,5-difluoro-N-hydroxy-4-((5-(thiophen-2-yl)-1H-tetrazol-1-yl)methyl)benzamide]",IC50,[1],0.66 µM
same,IC50,[2],0.999 µM
same,IC50,[3],6.29 µM
same,IC50,[4],8.72 µM
same,"RS (relative T-reg suppression, AUC drug/AUC control)",[5]; concentration 1 μM,3.0
"Cn1c(Sc2c(F)cc(C(=O)NO)cc2F)nnc1-c1cccs1 [comp. 17, 3,5-difluoro-N-hydroxy-4-((4-methyl-5-(thiophen-2-yl)-4H-1,2,4-triazol-3-yl)thio)benzamide]",IC50,[1],1.39 µM
same,IC50,[2],0.193 µM
same,IC50,[3],2.83 µM
same,IC50,[4],5.2 µM
"O=C(NO)c1cc(F)c(Cn2nnc(-c3ccco3)n2)c(F)c1 [comp. 19, 3,5-difluoro-4-((5-(furan-2-yl)-2H-tetrazol-2-yl)methyl)-N-hydroxybenzamide]",IC50,[1],0.675 µM
same,IC50,[2],0.647 µM
same,IC50,[3],2.64 µM
same,IC50,[4],1.16 µM
same,"RS (relative T-reg suppression, AUC drug/AUC control)",[5]; concentration 1 μM,2.3
"O=C(NO)c1ccc(Cn2nnc(-c3ccccc3F)n2)cc1 [comp. 33, 4-[[5-(2-fluorophenyl)tetrazol-2-yl]methyl]benzenecarbohydroxamic acid]",IC50,[1],1.91 µM
same,IC50,[2],0.413 µM
same,IC50,[3],0.138 µM
same,"RS (relative T-reg suppression, AUC drug/AUC control)",[5]; concentration 0.10 μM,4.6
"CN(C)S(=O)(=O)c1cccc(-c2nnn(Cc3ccc(C(=O)NO)cc3)n2)c1 [comp. 59, 4-[[5-[3-(dimethylsulfamoyl)phenyl]tetrazol-2-yl]methyl]benzenecarbohydroxamic acid]",IC50,[1],2.49 µM
same,IC50,[2],0.547 µM
same,IC50,[3],0.448 µM
same,"RS (relative T-reg suppression, AUC drug/AUC control)",[5]; concentration 0.5 μM,4.8
"CCN(CC)S(=O)(=O)c1cccc(-c2nnc(Sc3ccc(C(=O)NO)cc3)n2N)c1 [comp. 61, 4-[[4-amino-5-[3-(diethylsulfamoyl)phenyl]-1,2,4-triazol-3-yl]sulfanyl]benzenecarbohydroxamic acid]",IC50,[1],1.59 µM
same,IC50,[2],0.494 µM
same,IC50,[3],0.488 µM
same,"RS (relative T-reg suppression, AUC drug/AUC control)",[5]; concentration 1 μM,1.1
"O=C(NO)c1cc(F)c(Cn2nnc(-c3cccs3)n2)c(F)c1 [comp. 65, 3,5-difluoro-4-[[5-(2-thienyl)tetrazol-2-yl]methyl]benzenecarbohydroxamic acid]",IC50,[1],0.831 µM
same,IC50,[2],1.08 µM
same,IC50,[3],1.86 µM
same,"RS (relative T-reg suppression, AUC drug/AUC control)",[5]; concentration 1 μM,4.4
"CCN(CC)S(=O)(=O)c1cccc(-c2nnc(Sc3ccc(C(=O)NO)cc3)n2C)c1 [comp. 66, 4-[[5-[3-(diethylsulfamoyl)phenyl]-4-methyl-1,2,4-triazol-3-yl]sulfanyl]benzenecarbohydroxamic acid]",IC50,[1],0.481 µM
same,IC50,[2],0.419 µM
same,IC50,[3],0.921 µM
same,"RS (relative T-reg suppression, AUC drug/AUC control)",[5]; concentration 1 μM,2.6
"CN(C)c1cccc(-c2nnc(Sc3ccc(C(=O)NO)cc3)n2C)c1 [comp. 77, 4-[[5-[3-(dimethylamino)phenyl]-4-methyl-1,2,4-triazol-3-yl]sulfanyl]benzenecarbohydroxamic acid]",IC50,[1],2.65 µM
same,IC50,[2],0.795 µM
same,IC50,[3],1.15 µM
same,IC50,[4],11.1 µM
same,"RS (relative T-reg suppression, AUC drug/AUC control)",[5]; concentration 1 μM,2.4
"O=C(NO)c1cc(F)c(Cn2nnc(-c3scc4c3OCCO4)n2)c(F)c1 [comp. 79, 4-[[5-(2,3-dihydrothieno[3,4-b][1,4]dioxin-5-yl)tetrazol-2-yl]methyl]-3,5-difluoro-benzenecarbohydroxamic acid]",IC50,[1],0.541 µM
same,IC50,[3],1.65 µM
same,IC50,[4],22.2 µM
same,"RS (relative T-reg suppression, AUC drug/AUC control)",[5]; concentration 1 μM,1.7
"Cc1cc(-c2nnc(Sc3ccc(C(=O)NO)cc3)n2C)nn1C [comp. 85, 4-[[5-(1,5-dimethylpyrazol-3-yl)-4-methyl-1,2,4-triazol-3-yl]sulfanyl]benzenecarbohydroxamic acid]",IC50,[1],1.03 µM
same,IC50,[2],0.216 µM
same,IC50,[3],0.339 µM
same,IC50,[4],1.16 µM
same,"RS (relative T-reg suppression, AUC drug/AUC control)",[5]; concentration 0.5 μM,3.0
same,"RS (relative T-reg suppression, AUC drug/AUC control)",[5]; concentration 1 μM,3.8
